Assay [1] has as its target Inhibitor of nuclear factor kappa-B kinase subunit epsilon (Homo sapiens) (UniProt Q14164). Nature of the assay: Inhibition of IKK-epsilon (unknown origin) assessed as remaining activity at 1 uM by Kinome scan method relative to control.
Assay [2] concerns the target Tyrosine-protein kinase JAK1 (Homo sapiens) (UniProt P23458). The experiment in a line: Inhibition of JAK1 JH1 domain (unknown origin) assessed as remaining activity at 1 uM by Kinome scan method relative to control.
Assay [3] concerns the target Hepatocyte growth factor receptor (Homo sapiens) (UniProt P08581). The experiment in a line: Inhibition of MET (unknown origin) assessed as remaining activity at 1 uM by Kinome scan method relative to control.
The target in assay [4] is Serine/threonine-protein kinase 38-like (Homo sapiens) (UniProt Q9Y2H1). Nature of the assay: Inhibition of NDR2 (unknown origin) assessed as remaining activity at 1 uM by Kinome scan method relative to control.
Assay [5] has as its system Proto-oncogene tyrosine-protein kinase receptor Ret (Homo sapiens), P07949 [V804L]. Nature of the assay: Inhibition of RET V804L (unknown origin) assessed as remaining activity at 1 uM by Kinome scan method relative to control.
In assay [6] the target is Serine/threonine-protein kinase ULK2 (Homo sapiens) (UniProt Q8IYT8). Nature of the assay: Inhibition of ULK2 (unknown origin) assessed as remaining activity at 1 uM by Kinome scan method relative to control.
Assay [7] concerns the target Casein kinase I isoform gamma-1 (Homo sapiens) (UniProt Q9HCP0). Nature of the assay: Inhibition of human CK1gamma1 assessed as residual activity at 1 uM using casein as substrate in presence of 33P-ATP by ProQinase assay relative to control.
The subject of assay [8] is Receptor-type tyrosine-protein kinase FLT3 (Homo sapiens), P36888 [UNDEFINED MUTATION]. The experiment in a line: Inhibition of human […] mutant assessed as residual activity at 1 uM using Poly(Ala,Glu,Lys,Tyr)6:2:5:1 as substrate in presence of 33P-ATP by ProQinase assay relative to control.
For assay [9], the target named is G protein-coupled receptor kinase 5 (Homo sapiens) (UniProt P34947). Nature of the assay: Inhibition of human GRK5 assessed as residual activity at 1 uM using casein as substrate in presence of 33P-ATP by ProQinase assay relative to control.
In assay [10] the target is T1, Tyrosine-protein kinase ITK/TSK (Homo sapiens) (UniProt Q08881).
T1 sequence (whole entry): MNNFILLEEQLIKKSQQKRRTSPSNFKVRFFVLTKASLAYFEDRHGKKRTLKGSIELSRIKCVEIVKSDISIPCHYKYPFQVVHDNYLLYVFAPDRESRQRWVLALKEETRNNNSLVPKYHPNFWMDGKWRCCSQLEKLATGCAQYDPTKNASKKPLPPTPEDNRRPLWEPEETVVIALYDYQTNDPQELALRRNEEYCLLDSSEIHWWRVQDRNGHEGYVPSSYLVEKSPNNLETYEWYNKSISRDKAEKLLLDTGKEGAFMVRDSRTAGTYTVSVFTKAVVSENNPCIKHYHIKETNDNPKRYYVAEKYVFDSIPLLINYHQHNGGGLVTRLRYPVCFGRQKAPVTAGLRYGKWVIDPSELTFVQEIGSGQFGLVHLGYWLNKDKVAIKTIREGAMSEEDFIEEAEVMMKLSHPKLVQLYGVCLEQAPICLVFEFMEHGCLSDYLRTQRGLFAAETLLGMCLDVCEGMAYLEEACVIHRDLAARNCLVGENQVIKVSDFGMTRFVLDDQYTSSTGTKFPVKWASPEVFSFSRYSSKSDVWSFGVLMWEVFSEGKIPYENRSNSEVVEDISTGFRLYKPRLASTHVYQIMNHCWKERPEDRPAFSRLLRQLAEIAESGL
Nature of the assay: Inhibition of human ITK assessed as residual activity at 1 uM using polyEY as substrate in presence of 33P-ATP by ProQinase assay relative to control.

Assay [11] deals with Tyrosine-protein kinase Lyn (Homo sapiens) (UniProt P07948). The experiment in a line: Inhibition of human LYN assessed as residual activity at 1 uM using polyEY as substrate in presence of 33P-ATP by ProQinase assay relative to control.
The target in assay [12] is T2, Megakaryocyte-associated tyrosine-protein kinase (Homo sapiens) (UniProt P42679).
T2 sequence (whole entry): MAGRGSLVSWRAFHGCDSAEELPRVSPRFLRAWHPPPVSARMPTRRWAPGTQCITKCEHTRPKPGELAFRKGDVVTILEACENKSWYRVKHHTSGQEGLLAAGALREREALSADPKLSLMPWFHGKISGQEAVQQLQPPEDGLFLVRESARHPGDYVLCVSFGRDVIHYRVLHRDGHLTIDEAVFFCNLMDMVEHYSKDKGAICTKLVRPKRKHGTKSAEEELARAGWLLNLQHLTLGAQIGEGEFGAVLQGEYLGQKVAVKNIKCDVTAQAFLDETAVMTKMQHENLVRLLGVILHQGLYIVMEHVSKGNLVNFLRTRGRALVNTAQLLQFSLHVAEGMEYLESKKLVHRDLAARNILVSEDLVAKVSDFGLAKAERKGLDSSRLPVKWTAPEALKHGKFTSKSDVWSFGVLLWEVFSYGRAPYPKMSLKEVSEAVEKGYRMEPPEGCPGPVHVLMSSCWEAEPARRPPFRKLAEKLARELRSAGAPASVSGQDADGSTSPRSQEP
Nature of the assay: Inhibition of human MATK assessed as residual activity at 1 uM using polyEy as substrate in presence of 33P-ATP by ProQinase assay relative to control.

The test system of assay [13] is Hepatocyte growth factor receptor (Homo sapiens), P08581 [D1228H]. Nature of the assay: Inhibition of human MET D1228H mutant assessed as residual activity at 1 uM using poly(Ala,Glu,Lys,Tyr)6:2:5:1 as substrate in presence of 33P-ATP by ProQinase assay relative to control.
Assay [14] deals with Serine/threonine-protein kinase PAK 5 (Homo sapiens) (UniProt Q9P286). The experiment in a line: Inhibition of human PAK7 assessed as residual activity at 1 uM using bio-4xCHKT as substrate in presence of 33P-ATP by ProQinase assay relative to control.
The target in assay [15] is Proto-oncogene tyrosine-protein kinase Src (Homo sapiens) (UniProt P12931). The experiment in a line: Inhibition of human GST/His-tagged SRC assessed as residual activity at 1 uM using PolyEY as substrate in presence of 33P-ATP by ProQinase assay relative to control.
Sequence of Proto-oncogene tyrosine-protein kinase Src (Homo sapiens) (P12931 2-536 limits assumed): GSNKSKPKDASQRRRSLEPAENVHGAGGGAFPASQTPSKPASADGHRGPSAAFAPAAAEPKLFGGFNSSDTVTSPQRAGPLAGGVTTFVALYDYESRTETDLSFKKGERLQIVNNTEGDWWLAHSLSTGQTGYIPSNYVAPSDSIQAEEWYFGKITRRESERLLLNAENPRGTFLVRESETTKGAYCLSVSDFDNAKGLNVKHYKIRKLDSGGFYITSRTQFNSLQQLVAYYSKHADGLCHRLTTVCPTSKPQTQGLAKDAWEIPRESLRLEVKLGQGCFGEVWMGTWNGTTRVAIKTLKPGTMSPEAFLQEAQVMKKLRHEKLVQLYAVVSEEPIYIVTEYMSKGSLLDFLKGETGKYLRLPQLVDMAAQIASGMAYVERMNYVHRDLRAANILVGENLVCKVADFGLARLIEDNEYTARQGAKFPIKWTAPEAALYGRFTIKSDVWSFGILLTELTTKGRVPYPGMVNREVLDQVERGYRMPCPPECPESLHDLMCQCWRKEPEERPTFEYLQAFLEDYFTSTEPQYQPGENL

Sequence of Casein kinase I isoform gamma-1 (Homo sapiens) (Q9HCP0 whole entry, looked up, canonical isoform): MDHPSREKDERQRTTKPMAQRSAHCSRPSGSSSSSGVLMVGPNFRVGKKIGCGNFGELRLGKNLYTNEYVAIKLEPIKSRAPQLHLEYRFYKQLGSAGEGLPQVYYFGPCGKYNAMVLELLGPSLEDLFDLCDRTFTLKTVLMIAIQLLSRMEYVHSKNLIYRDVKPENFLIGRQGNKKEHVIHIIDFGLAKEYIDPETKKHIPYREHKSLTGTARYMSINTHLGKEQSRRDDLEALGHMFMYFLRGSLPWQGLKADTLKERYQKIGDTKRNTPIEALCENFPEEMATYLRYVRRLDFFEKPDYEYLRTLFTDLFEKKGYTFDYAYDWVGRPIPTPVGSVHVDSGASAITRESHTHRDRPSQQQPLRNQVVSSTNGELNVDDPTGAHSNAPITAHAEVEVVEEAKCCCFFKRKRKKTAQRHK
Sequence of Tyrosine-protein kinase Lyn (Homo sapiens) (P07948 2-512 limits assumed): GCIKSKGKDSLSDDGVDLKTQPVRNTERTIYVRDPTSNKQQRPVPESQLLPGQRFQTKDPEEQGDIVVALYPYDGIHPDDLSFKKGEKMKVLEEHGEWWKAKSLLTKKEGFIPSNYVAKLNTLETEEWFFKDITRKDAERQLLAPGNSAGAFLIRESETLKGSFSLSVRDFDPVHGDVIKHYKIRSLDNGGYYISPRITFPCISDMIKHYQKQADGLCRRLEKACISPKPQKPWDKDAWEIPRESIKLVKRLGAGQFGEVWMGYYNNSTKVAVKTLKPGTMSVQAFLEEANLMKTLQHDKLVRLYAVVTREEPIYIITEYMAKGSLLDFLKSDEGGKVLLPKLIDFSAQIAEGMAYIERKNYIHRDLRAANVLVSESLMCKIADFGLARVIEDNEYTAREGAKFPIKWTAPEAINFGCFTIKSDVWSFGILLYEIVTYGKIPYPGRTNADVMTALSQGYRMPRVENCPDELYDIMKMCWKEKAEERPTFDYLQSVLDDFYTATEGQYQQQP
Sequence of Serine/threonine-protein kinase 38-like (Homo sapiens) (Q9Y2H1 2-464 limits assumed): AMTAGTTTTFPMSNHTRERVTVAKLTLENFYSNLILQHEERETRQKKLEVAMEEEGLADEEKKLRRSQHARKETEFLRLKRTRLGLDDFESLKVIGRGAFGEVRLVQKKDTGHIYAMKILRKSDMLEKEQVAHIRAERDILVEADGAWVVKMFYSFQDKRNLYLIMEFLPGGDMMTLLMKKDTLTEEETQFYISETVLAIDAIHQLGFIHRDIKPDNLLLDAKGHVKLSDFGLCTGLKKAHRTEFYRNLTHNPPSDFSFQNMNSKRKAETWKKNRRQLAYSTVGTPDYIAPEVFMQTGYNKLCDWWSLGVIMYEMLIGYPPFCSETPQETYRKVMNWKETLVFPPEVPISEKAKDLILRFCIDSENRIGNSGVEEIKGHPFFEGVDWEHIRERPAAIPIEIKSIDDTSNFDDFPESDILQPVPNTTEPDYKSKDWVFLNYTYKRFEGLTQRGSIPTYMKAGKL
Sequence of Receptor-type tyrosine-protein kinase FLT3 (Homo sapiens), P36888 [UNDEFINED MUTATION] (P36888 whole entry, looked up, change not shown): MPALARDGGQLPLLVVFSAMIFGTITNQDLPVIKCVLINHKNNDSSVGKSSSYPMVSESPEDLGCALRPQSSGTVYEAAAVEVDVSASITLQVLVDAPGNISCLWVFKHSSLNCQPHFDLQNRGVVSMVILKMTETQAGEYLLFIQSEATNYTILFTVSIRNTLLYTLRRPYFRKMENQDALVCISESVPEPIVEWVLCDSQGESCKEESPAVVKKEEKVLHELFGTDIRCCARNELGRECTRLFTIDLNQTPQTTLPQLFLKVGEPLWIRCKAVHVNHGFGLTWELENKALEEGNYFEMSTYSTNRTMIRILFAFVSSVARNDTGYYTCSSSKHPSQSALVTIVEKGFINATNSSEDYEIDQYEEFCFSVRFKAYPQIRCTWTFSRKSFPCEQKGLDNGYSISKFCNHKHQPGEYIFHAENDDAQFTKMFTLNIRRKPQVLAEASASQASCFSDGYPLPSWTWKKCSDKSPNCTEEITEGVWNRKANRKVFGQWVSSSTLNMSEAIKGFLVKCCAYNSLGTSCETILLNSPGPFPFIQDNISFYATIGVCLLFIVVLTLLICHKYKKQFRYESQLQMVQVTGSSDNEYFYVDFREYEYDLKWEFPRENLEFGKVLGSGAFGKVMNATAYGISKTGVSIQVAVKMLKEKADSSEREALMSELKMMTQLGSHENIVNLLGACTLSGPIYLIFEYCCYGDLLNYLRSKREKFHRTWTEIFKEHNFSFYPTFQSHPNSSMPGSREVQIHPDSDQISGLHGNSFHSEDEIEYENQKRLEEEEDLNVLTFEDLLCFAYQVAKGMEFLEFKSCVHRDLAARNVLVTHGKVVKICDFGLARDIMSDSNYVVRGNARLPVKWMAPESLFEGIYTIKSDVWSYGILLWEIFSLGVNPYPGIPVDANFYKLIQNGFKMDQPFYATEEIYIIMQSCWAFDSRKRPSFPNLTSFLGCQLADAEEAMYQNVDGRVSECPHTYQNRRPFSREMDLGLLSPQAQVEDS
Sequence of Proto-oncogene tyrosine-protein kinase receptor Ret (Homo sapiens), P07949 [V804L] (P07949 whole entry V804L): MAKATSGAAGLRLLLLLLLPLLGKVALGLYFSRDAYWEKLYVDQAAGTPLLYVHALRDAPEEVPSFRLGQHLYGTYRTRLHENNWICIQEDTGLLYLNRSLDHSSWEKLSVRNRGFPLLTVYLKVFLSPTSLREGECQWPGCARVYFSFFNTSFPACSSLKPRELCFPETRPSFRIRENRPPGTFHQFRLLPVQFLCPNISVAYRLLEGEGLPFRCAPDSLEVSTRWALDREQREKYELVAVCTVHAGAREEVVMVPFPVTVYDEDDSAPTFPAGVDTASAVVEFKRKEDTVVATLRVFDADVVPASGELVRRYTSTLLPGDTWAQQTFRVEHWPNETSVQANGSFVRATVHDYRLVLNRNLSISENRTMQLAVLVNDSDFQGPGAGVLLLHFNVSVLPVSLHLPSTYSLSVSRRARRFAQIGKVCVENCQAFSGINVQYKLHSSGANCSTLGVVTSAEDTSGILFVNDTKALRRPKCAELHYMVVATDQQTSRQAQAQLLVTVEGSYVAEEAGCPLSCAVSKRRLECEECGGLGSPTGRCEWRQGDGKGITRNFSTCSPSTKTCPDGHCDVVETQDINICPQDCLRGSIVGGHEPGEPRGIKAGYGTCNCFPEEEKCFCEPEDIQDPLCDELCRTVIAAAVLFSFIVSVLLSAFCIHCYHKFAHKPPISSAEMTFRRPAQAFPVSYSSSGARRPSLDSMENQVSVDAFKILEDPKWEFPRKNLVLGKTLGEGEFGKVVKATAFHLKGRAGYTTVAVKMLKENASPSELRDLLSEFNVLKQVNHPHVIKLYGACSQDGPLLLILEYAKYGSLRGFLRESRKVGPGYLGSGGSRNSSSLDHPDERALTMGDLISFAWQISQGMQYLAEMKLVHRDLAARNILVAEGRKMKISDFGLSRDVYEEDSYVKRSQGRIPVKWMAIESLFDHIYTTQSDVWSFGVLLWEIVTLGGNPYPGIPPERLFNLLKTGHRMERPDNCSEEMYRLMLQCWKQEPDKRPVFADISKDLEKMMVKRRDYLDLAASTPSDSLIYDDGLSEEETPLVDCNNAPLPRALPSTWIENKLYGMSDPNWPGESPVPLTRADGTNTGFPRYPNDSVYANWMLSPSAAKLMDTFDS
Sequence of G protein-coupled receptor kinase 5 (Homo sapiens) (P34947 whole entry, looked up): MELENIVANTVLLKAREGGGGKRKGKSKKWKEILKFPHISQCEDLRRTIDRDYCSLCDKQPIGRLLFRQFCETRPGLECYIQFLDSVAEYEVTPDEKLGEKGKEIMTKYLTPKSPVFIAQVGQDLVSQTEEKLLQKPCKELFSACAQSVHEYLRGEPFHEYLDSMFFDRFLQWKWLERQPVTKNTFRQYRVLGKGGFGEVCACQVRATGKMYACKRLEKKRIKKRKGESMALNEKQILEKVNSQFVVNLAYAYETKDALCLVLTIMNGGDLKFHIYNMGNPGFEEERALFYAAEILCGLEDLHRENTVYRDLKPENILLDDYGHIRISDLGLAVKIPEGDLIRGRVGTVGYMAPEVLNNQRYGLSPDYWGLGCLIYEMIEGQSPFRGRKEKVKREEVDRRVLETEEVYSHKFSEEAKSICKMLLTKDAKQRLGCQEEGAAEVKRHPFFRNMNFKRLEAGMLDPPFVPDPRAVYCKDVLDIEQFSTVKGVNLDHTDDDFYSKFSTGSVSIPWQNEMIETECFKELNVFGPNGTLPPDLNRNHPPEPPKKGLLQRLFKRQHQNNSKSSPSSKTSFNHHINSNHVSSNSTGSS

Regarding `O=C1c2ccc(Nc3ccc(F)cc3F)cc2CCc2ccc(OC[C@H](O)CO)cc21` [Skepinone-L], the Activity in assay [1], in [2], in assay [3], in assay [4], in assay [5] and in assay [6] was 100% each time. In addition, the Activity in assay [7] came to 97%; in assay [8] it was 101%; in [9], 121%; in assay [10], 97%; in [11], 98%; in assay [12], 111%. The Activity in [13] was 97%; in [14], 87%; in assay [15] it was 119%.

(Values after ChEMBL document CHEMBL5696441 (Nat Chem Biol, 2011).)
